Assay results: patent US5331089A, “Peptides useful as tachykinin agonists” (Merck Sharpe & Dohme, Ltd., priority 1988, dated 1994)
Where a SMILES comes first, the peptide text is derived from it.

Target: T1, NK-2 tachykinin receptor (Rattus norvegicus, UniProt P16610)
T1 construct: The vas deferens is dissected free from the surrounding connective tissue and suspended in a 3 ml organ bath; from tissue; host or cells: isolated rat vas deferens (male Wistar rat), longitudinal muscle
T1 sequence (P16610 1-390): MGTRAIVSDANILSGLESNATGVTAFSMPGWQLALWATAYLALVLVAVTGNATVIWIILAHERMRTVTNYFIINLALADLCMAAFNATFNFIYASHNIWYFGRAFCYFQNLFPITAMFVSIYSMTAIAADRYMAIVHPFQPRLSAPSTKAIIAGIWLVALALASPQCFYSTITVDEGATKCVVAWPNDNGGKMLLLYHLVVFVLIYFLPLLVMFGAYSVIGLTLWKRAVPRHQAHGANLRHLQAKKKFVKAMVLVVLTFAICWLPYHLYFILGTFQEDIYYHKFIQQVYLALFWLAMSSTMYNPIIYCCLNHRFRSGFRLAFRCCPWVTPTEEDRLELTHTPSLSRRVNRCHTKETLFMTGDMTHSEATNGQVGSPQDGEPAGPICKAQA
Experiment: Isolated rat vas deferens preparation: antagonism of eledoisin-induced increase in field-stimulated twitch
Type: cell-based
Conditions: isolated Wistar rat vas deferens, eledoisin as standard agonist, pA2 (-logKb) estimated from dose ratio; for Kb: read-out: pA2 (against eledoisin) (converted)
Experimental: The activity of the compounds of the accompanying Examples as tachykinin receptor antagonists was evaluated using the following method:
The tachykinin receptor present in the longitudinal muscle of the rat vas deferens has been characterised, using natural and synthetic tachykinins, as `NK-2`. This preparation is therefore used to determine the selectivity and potency of the peptides for this receptor sub-type.
Male Wistar rats weighing 200-300 g are killed by decapitation. The vas deferens is dissected free from the surrounding connective tissue and suspended in a 3 ml organ bath under an initial resting tension of 1 g. The tissue is maintained at 37° C. in modified KREBS HENSALEIT solution (NaCl 118.4, KCl 4.7, CaCl2 2.5, KH2 PO4 1.18, MgSO4.7H2 O 1.19, NaHCO3 25.0, D-glucose 11.1 mM), which is continuously gassed with a mixture of 95% O2 and 5% CO2. Field stimulated responses are elicited by trains of pulses delivered for 1 second every 20 seconds (7 Hz, 70-80 V, individual pulse duration 0.5 ms). […] Contractions remain reasonably constant for 3-4 hours with no spontaneous changes in resting tension. A dose-cycle of 10-15 minutes is used, drug contact time being about 3-5 minutes.
In all experiments eledoisin is used as a standard agonist. Eledoisin, in the dose range 10^-8 -3×10^-6 M, produces a dose-related increase in twitch height and, to a lesser extent, basal tension. A second dose-response curve is then constructed to the peptide under investigation.
To determine the potency of each peptide as an NK-2 antagonist, the test compound is added to the bathing medium, at an appropriate concentration, 20-30 minutes before the first dose of the second eledoisin dose-response curve. Thereafter addition of the test compound 5-10 minutes before the eledoisin dose is sufficient. The percentage increase in twitch produced by eledoisin in the presence and absence of the antagonist is expressed as a percentage of the maximum response of each individual dose-response curve. Thus all dose-response curves have the same maximum. From the dose ratio an estimate of the pA2 (-logKb) for each test compound can be determined:
pA2 =log[(DR-1)/(antagonist conc.)]

CSCC[C@@H]1NC(=O)[C@H](CC(C)C)NC(=O)CNC(=O)[C@H](Cc2ccccc2)NC(=O)[C@H](Cc2c[nH]c3ccccc23)NC(=O)[C@H](CCC(N)=O)NC1=O [Example 3, Cyclo (Gln-Trp-Phe-Gly-Leu-Met)] (cyclo(FGLMQW))
Kb: 0.01 µM

CSCC[C@@H]1NC(=O)[C@H](CC(C)C)N2CC[C@@H](NC(=O)[C@H](Cc3ccccc3)N(C)C(=O)[C@@H](Cc3c[nH]c4ccccc34)NC(=O)[C@H](CCC(N)=O)NC(=O)[C@H](CCSC)NC(=O)[C@H](CC(C)C)N3CC[C@@H](NC(=O)[C@H](Cc4ccccc4)N(C)C(=O)[C@@H](Cc4c[nH]c5ccccc45)NC(=O)[C@H](CCC(N)=O)NC1=O)C3=O)C2=O [Example 5b, cyclo (Gln-D-Trp-(N-Me)Phe-(R)Gly[ANC-2]Leu-Met2]
Kb: 7.94 µM

Ac-LMQWFG-NH2 [Example 6, Acetyl-Leu-Met-Gln-Trp-Phe-Gly-NH2]
Kb: 0.158 µM

Cyclo(Gln-Npa-Phe-(R)Gly[ANC-2]Leu-Met) [Example 2]
pA2 (against eledoisin): 5.6
